Experimental findings from ChEMBL document CHEMBL1201862, “PubChem BioAssay data set” (2004) are described below.

Holding throughout (assay type): functional
One test has as its target T1, Protein RecA (Mycobacterium tuberculosis, UniProt P9WHJ3).
T1 sequence (P9WHJ3 whole entry): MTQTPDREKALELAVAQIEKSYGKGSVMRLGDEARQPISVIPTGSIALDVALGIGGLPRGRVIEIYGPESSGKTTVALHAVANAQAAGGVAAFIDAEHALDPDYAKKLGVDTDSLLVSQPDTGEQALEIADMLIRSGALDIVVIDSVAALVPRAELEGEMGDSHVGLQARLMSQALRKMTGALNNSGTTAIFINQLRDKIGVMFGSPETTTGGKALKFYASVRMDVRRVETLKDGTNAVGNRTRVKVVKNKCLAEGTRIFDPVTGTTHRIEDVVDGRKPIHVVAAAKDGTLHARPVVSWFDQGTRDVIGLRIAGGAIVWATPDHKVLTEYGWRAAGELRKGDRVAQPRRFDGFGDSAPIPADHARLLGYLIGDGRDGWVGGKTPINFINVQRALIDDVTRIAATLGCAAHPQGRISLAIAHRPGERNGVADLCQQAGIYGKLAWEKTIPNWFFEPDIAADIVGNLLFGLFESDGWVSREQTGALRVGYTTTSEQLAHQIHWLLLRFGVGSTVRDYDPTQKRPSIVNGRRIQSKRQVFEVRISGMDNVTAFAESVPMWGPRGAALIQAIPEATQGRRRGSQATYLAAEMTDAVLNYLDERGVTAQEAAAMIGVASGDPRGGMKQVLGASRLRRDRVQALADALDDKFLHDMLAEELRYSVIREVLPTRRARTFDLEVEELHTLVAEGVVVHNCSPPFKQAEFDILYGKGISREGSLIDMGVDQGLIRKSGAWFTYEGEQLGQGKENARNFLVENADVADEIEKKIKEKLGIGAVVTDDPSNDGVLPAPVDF
In words: Fluorescence Cell-Free Homogeneous Dose Retest to Identify Inhibitors of RecA-Intein Splicing Activity. [Related pubchem assays (depositor defined):AID2097, AID2223, AID489010, AID492950].

Test [1] is described as follows: viability of PTEN-deleted HCT116 cells – cell-based, HCT116 PTEN knockout, dose response (AID 1047).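 Note: HCT116 colon tumor cells with PTEN knocked out; cells exposed to compound for 60 hours before readout; potency for loss of cell viability measured by luminescence.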
The target of test [2] is T2, Microphthalmia-associated transcription factor (Homo sapiens, UniProt O75030).
T2 sequence (O75030 whole entry): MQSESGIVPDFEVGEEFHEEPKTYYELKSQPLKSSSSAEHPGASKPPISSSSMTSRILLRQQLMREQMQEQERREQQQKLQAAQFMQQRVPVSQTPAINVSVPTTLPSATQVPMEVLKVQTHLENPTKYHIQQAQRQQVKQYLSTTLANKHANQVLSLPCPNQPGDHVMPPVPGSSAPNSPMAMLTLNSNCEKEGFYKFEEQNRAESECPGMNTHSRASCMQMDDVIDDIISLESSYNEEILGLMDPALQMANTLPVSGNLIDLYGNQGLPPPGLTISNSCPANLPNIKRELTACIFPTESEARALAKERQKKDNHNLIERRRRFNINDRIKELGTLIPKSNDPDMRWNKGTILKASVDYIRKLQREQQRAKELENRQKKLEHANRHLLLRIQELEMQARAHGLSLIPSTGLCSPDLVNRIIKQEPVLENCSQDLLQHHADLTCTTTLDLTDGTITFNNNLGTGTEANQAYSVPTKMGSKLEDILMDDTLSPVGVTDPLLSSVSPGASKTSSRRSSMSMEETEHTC
Description: reducers of TRPM1 reporter luminescence, concentration series – cell-based, SK-MEL-5, cherry-picked, set 3, MITF inhibitor project, dose response (AID 493073).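 Note: SK-MEL-5 melanoma cells with luciferase driven by the MITF target TRPM1 promoter.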

In test [3] the target is T3, Replicative DNA helicase DnaB (Mycobacterium tuberculosis, UniProt P9WMR3).
T3 sequence (P9WMR3 whole entry): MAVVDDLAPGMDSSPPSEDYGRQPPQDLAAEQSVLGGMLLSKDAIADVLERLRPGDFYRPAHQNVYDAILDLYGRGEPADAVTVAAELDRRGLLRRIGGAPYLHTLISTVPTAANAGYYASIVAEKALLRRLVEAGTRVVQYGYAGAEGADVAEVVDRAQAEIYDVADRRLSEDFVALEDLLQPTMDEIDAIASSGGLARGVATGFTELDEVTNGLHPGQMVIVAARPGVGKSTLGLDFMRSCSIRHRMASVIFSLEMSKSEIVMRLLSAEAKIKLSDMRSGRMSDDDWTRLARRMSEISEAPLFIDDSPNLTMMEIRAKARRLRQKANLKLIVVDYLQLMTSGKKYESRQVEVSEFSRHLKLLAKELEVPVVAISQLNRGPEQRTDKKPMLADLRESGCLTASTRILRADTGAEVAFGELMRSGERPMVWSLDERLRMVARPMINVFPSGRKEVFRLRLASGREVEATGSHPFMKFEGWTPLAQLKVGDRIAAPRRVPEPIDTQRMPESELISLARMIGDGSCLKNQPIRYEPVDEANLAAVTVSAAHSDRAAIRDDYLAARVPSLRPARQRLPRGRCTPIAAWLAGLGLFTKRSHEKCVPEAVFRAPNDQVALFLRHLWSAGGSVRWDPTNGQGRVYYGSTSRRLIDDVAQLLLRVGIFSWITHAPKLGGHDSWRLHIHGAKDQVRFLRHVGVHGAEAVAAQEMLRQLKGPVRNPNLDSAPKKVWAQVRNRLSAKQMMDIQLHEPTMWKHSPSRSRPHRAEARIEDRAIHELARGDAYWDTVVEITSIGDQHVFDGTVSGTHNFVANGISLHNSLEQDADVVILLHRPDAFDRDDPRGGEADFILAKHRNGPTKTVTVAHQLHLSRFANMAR
In words: DnaB intein splicing inhibitors, dose response, biochemical, cell-free fluorescence (AID 449749).

Molecules are shown by their SMILES. Active and inactive are the calls of the source.

Regarding `CCC(=O)OCCNc1cc(Sc2nccn2C)c2nonc2c1[N+](=O)[O-]`, the EC50 at Protein RecA was 1.37 µM (active); in test [1], 4.83 µM (active). Also, the AC50 in test [2] was 7.16 µM (active); in test [3], 2.9 µM (active).

Consider `CCc1ccc(OCC(=O)N/N=C2\CC(=O)c3ccccc32)cc1`, for which the EC50 at Protein RecA is 1.24 µM (active); in test [1], 10.2 µM (active). The AC50 in test [3] was 6.09 µM (active).

For `O=C1c2cc(F)ccc2-n2c1nc1ccccc1c2=O`, the EC50 on Protein RecA was > 380 µM (inactive). Also, the figures for the AC50 in test [2] and in test [3] were 1.05 µM (active) and > 120 µM (inactive), respectively.

`CCOC(=O)C1=C(c2ccc(OC)cc2)C(=O)c2ccccc2C1=O`: the EC50 is 1.83 µM (active) on Protein RecA and 3.57 µM (active) in test [1]. In addition, in test [3], the AC50 was 4.41 µM (active).

Regarding `O=C1C(=O)c2ccccc2-c2ccccc21` [9,10-PHENANTHRENEQUINONE], on Protein RecA, the EC50 is 7.45 µM (active). For the same molecule, the AC50 in test [3] is 6.47 µM (active).

`COCCCNC(=O)c1ccc2c3c(onc13)-c1ccccc1C2=O`: on Protein RecA, the EC50 is 13 µM (active).

`O=C1C=C(N(CCO)Cc2ccccc2)c2ccccc2C1=O`: the EC50 at Protein RecA is 0.402 µM (active). In addition, the AC50 in test [2] is 4.78 µM (active); in test [3], > 380 µM (inconclusive).
